± gives the standard deviation of the averaged measurements.
Assays:
Experiment in all cases: relative viability vs DMSO control (72 h) (fraction); higher = more viable cells
SYO-1 = test system: SYO-1
Outline: (§1)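 Sarcoma cell lines were plated in 384 wells to reach 80–90% confluence, treated after 24 h with 2.5 µl of serially diluted compound and held 72 h at 37 °C, 5% CO2. Relative viability was taken as percent growth from ATPLite readings, averaged over up to triplicate wells. The values were rescaled so that 1 marks full and 0 marks none.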

RD = test system: RD
Outline: as §1

SW684 = test system: SW684
Outline: as §1

SW872 = test system: SW872
Outline: as §1

HS729 = test system: HS729
Outline: as §1

SW1353 = test system: SW1353
Outline: as §1

KHOS-NP = test system: KHOS-NP
Outline: as §1

G401 = test system: G401
Outline: as §1

HT1080 = test system: HT1080
Outline: as §1

RD-ES = test system: RD-ES
Outline: as §1

SK-LMS-1 = test system: SK-LMS-1
Outline: as §1

KHOS-240S = test system: KHOS-240S
Outline: as §1

CNC(=O)c1ccccc1Sc1ccc2c(/C=C/c3ccccn3)n[nH]c2c1 [Axitinib]
relative viability (SYO-1; 0.00017 µM): 1 ± 0.0059
relative viability (SYO-1; 0.00051 µM): 0.973 ± 0.026
relative viability (SYO-1; 0.00152 µM): 0.9673 ± 0.009
relative viability (SYO-1; 0.00457 µM): 0.913 ± 0.011
relative viability (SYO-1; 0.01372 µM): 0.841 ± 0.038
relative viability (SYO-1; 0.04115 µM): 0.742 ± 0.035
relative viability (SYO-1; 0.1235 µM): 0.662 ± 0.013
relative viability (SYO-1; 0.3704 µM): 0.485 ± 0.036
relative viability (SYO-1; 1.111 µM): 0.422 ± 0.026
relative viability (SYO-1; 3.333 µM): 0.141 ± 0.018
relative viability (SYO-1; 10 µM): 0.0669 ± 0.017
relative viability (RD; 0.00017 µM): 0.981 ± 0.08
relative viability (RD; 0.00051 µM): 0.977 ± 0.036
relative viability (RD; 0.00152 µM): 1 ± 0.025
relative viability (RD; 0.00457 µM): 1.01 ± 0.029
relative viability (RD; 0.01372 µM): 1.01 ± 0.07
relative viability (RD; 0.04115 µM): 0.98 ± 0.048
relative viability (RD; 0.1235 µM): 0.984 ± 0.026
relative viability (RD; 0.3704 µM): 0.892 ± 0.046
relative viability (RD; 1.111 µM): 0.874 ± 0.037
relative viability (RD; 3.333 µM): 0.465 ± 0.028
relative viability (RD; 10 µM): 0.183 ± 0.0068
relative viability (SW684; 0.00017 µM): 1.17 ± 0.069
relative viability (SW684; 0.00051 µM): 1.17 ± 0.013
relative viability (SW684; 0.00152 µM): 1.21 ± 0.038
relative viability (SW684; 0.00457 µM): 1.188 ± 0.005
relative viability (SW684; 0.01372 µM): 1.19 ± 0.05
relative viability (SW684; 0.04115 µM): 1.15 ± 0.056
relative viability (SW684; 0.1235 µM): 1.14 ± 0.012
relative viability (SW684; 0.3704 µM): 1.12 ± 0.032
relative viability (SW684; 1.111 µM): 1.14 ± 0.035
relative viability (SW684; 3.333 µM): 0.978 ± 0.053
relative viability (SW684; 10 µM): 0.493 ± 0.036
relative viability (SW872; 0.00017 µM): 1.08 ± 0.024
relative viability (SW872; 0.00051 µM): 1.04 ± 0.037
relative viability (SW872; 0.00152 µM): 1.06 ± 0.052
relative viability (SW872; 0.00457 µM): 1.08 ± 0.018
relative viability (SW872; 0.01372 µM): 1.05 ± 0.033
relative viability (SW872; 0.04115 µM): 1.03 ± 0.016
relative viability (SW872; 0.1235 µM): 0.981 ± 0.033
relative viability (SW872; 0.3704 µM): 0.902 ± 0.075
relative viability (SW872; 1.111 µM): 0.779 ± 0.053
relative viability (SW872; 3.333 µM): 0.511 ± 0.027
relative viability (SW872; 10 µM): 0.213 ± 0.0081
relative viability (HS729; 0.00017 µM): 1.09 ± 0.026
relative viability (HS729; 0.00051 µM): 1.03 ± 0.076
relative viability (HS729; 0.00152 µM): 1.04 ± 0.081
relative viability (HS729; 0.00457 µM): 0.987 ± 0.047
relative viability (HS729; 0.01372 µM): 0.909 ± 0.12
relative viability (HS729; 0.04115 µM): 0.916 ± 0.081
relative viability (HS729; 0.1235 µM): 0.929 ± 0.063
relative viability (HS729; 0.3704 µM): 0.861 ± 0.083
relative viability (HS729; 1.111 µM): 0.698 ± 0.04
relative viability (HS729; 3.333 µM): 0.271 ± 0.042
relative viability (HS729; 10 µM): 0.111 ± 0.0086
relative viability (SW1353; 0.00017 µM): 1.09 ± 0.041
relative viability (SW1353; 0.00051 µM): 1.1 ± 0.015
relative viability (SW1353; 0.00152 µM): 1.05 ± 0.019
relative viability (SW1353; 0.00457 µM): 1.04 ± 0.041
relative viability (SW1353; 0.01372 µM): 1.04 ± 0.02
relative viability (SW1353; 0.04115 µM): 1.01 ± 0.034
relative viability (SW1353; 0.1235 µM): 1.02 ± 0.079
relative viability (SW1353; 0.3704 µM): 0.908 ± 0.026
relative viability (SW1353; 1.111 µM): 0.94 ± 0.035
relative viability (SW1353; 3.333 µM): 0.789 ± 0.036
relative viability (SW1353; 10 µM): 0.288 ± 0.011
relative viability (KHOS-NP; 0.00017 µM): 1.08 ± 0.034
relative viability (KHOS-NP; 0.00051 µM): 1.12 ± 0.032
relative viability (KHOS-NP; 0.00152 µM): 1.12 ± 0.031
relative viability (KHOS-NP; 0.00457 µM): 1.12 ± 0.013
relative viability (KHOS-NP; 0.01372 µM): 1.12 ± 0.02
relative viability (KHOS-NP; 0.04115 µM): 1.106 ± 0.0093
relative viability (KHOS-NP; 0.1235 µM): 1.07 ± 0.035
relative viability (KHOS-NP; 0.3704 µM): 1.01 ± 0.038
relative viability (KHOS-NP; 1.111 µM): 0.986 ± 0.015
relative viability (KHOS-NP; 3.333 µM): 0.827 ± 0.029
relative viability (KHOS-NP; 10 µM): 0.405 ± 0.049
relative viability (G401; 0.00017 µM): 1.04 ± 0.037
relative viability (G401; 0.00051 µM): 1.04 ± 0.014
relative viability (G401; 0.00152 µM): 1.02 ± 0.011
relative viability (G401; 0.00457 µM): 1.01 ± 0.011
relative viability (G401; 0.01372 µM): 0.979 ± 0.043
relative viability (G401; 0.04115 µM): 0.963 ± 0.041
relative viability (G401; 0.1235 µM): 0.942 ± 0.049
relative viability (G401; 0.3704 µM): 0.854 ± 0.056
relative viability (G401; 1.111 µM): 0.806 ± 0.05
relative viability (G401; 3.333 µM): 0.456 ± 0.046
relative viability (G401; 10 µM): 0.0633 ± 0.0041
relative viability (HT1080; 0.00017 µM): 1.1 ± 0.017
relative viability (HT1080; 0.00051 µM): 1.06 ± 0.071
relative viability (HT1080; 0.00152 µM): 1.1 ± 0.012
relative viability (HT1080; 0.00457 µM): 1.1 ± 0.042
relative viability (HT1080; 0.01372 µM): 1.13 ± 0.025
relative viability (HT1080; 0.04115 µM): 1.11 ± 0.029
relative viability (HT1080; 0.1235 µM): 1.08 ± 0.036
relative viability (HT1080; 0.3704 µM): 1 ± 0.049
relative viability (HT1080; 1.111 µM): 1.04 ± 0.037
relative viability (HT1080; 3.333 µM): 0.979 ± 0.035
relative viability (HT1080; 10 µM): 0.388 ± 0.028
relative viability (RD-ES; 0.00017 µM): 0.962 ± 0.036
relative viability (RD-ES; 0.00051 µM): 0.92 ± 0.048
relative viability (RD-ES; 0.00152 µM): 0.938 ± 0.042
relative viability (RD-ES; 0.00457 µM): 0.947 ± 0.032
relative viability (RD-ES; 0.01372 µM): 0.94 ± 0.057
relative viability (RD-ES; 0.04115 µM): 0.963 ± 0.035
relative viability (RD-ES; 0.1235 µM): 0.938 ± 0.029
relative viability (RD-ES; 0.3704 µM): 0.871 ± 0.06
relative viability (RD-ES; 1.111 µM): 0.85 ± 0.02
relative viability (RD-ES; 3.333 µM): 0.729 ± 0.087
relative viability (RD-ES; 10 µM): 0.0832 ± 0.016
relative viability (SK-LMS-1; 0.00017 µM): 1.11 ± 0.07
relative viability (SK-LMS-1; 0.00051 µM): 1.14 ± 0.027
relative viability (SK-LMS-1; 0.00152 µM): 1.12 ± 0.022
relative viability (SK-LMS-1; 0.00457 µM): 1.09 ± 0.036
relative viability (SK-LMS-1; 0.01372 µM): 1.1 ± 0.032
relative viability (SK-LMS-1; 0.04115 µM): 1.09 ± 0.033
relative viability (SK-LMS-1; 0.1235 µM): 1.17 ± 0.018
relative viability (SK-LMS-1; 0.3704 µM): 1.17 ± 0.035
relative viability (SK-LMS-1; 1.111 µM): 1.18 ± 0.051
relative viability (SK-LMS-1; 3.333 µM): 1.13 ± 0.043
relative viability (SK-LMS-1; 10 µM): 0.55 ± 0.032
relative viability (KHOS-240S; 0.00017 µM): 1.05 ± 0.041
relative viability (KHOS-240S; 0.00051 µM): 1.02 ± 0.03
relative viability (KHOS-240S; 0.00152 µM): 1.04 ± 0.042
relative viability (KHOS-240S; 0.00457 µM): 1.05 ± 0.049
relative viability (KHOS-240S; 0.01372 µM): 1.02 ± 0.035
relative viability (KHOS-240S; 0.04115 µM): 1.01 ± 0.038
relative viability (KHOS-240S; 0.1235 µM): 0.964 ± 0.021
relative viability (KHOS-240S; 0.3704 µM): 0.802 ± 0.021
relative viability (KHOS-240S; 1.111 µM): 0.791 ± 0.056
relative viability (KHOS-240S; 3.333 µM): 0.495 ± 0.028
relative viability (KHOS-240S; 10 µM): 0.214 ± 0.013
